Assay results: article PMC4742130 (2015)

How the values were obtained:
[1] = test system: HTG22 (DNA, G4) AGGGTTAGGGTTAGGGTTAGGG; experiment: SPR, Langmuir kinetic fit; conditions: 100 mM KCl; 50 mM Tris-HCl, pH 7.4, 25 °C; highest concentration 20 μM
[2] = test system: F21T (DNA, G4) GGGTTAGGGTTAGGGTTAGGG; experiment: FRET melting; conditions: 60 mM KCl; 10 mM Tris-HCl, pH 7.4; 0.2 μM DNA; 1 μM compound (Figure S2A)
[3] = test system: HTG21 (DNA, G4) GGGTTAGGGTTAGGGTTAGGG; experiment: CD titration; conditions: no added K+ or Na+; 10 mM Tris-HCl, pH 7.4, 25 °C; 5 μM DNA; 0 to 5 mol equiv; induces antiparallel G4
[4] = test system: hairpin duplex DNA (DNA, hairpin) TTTTTTTTTCGAATTCGTTTTTCGAATTCG; experiment: SPR, Langmuir kinetic fit; conditions: 100 mM KCl; 50 mM Tris-HCl, pH 7.4, 25 °C; highest concentration 20 μM

SMILES | KD [1] [µM] | further results
COc1ccc2cc3[n+](cc2c1NCCCN1CCCC1)CCc1cc2c(cc1-3)OCO2 | 29 | 
COc1ccc2cc3[n+](cc2c1NCCCN1CCCCC1)CCc1cc2c(cc1-3)OCO2 | 149 | 
COc1ccc2cc3[n+](cc2c1NCCN1CCCCC1)CCc1cc2c(cc1-3)OCO2 | 10.8 | 
COc1ccc2cc3[n+](cc2c1NCCO)CCc1cc2c(cc1-3)OCO2 | 680 | 
COc1ccc2cc3[n+](cc2c1OC)CCc1cc2c(cc1-3)OCO2 | 170 | binding [2]: weak
COc1ccc2cc3[n+](cc2c1OCCCCCCCl)CCc1cc2c(cc1-3)OCO2 |  | binding [3]: yes; binding [1]: yes
COc1ccc2cc3[n+](cc2c1OCCCNC(=O)C(N)CCCCN)CCc1cc2c(cc1-3)OCO2 (stereo not shown) | 7.57 | KD [4]: 28900 µM
COc1ccc2cc3[n+](cc2c1OCCCNC(=O)C(N)CCCNC(=N)N)CCc1cc2c(cc1-3)OCO2 (stereo not shown) | 10.5 | KD [4]: 13900 µM
COc1ccc2cc3[n+](cc2c1OCCN)CCc1cc2c(cc1-3)OCO2 | 133 | 
